Test results published in patent US7030113B2, “Aminobenzimidazoles as selective melanin concentrating hormone receptor antagonists for the treatment of obesity and related disorders” (Schering Corporation, priority 2003, dated 2006).
pKi: −log10 of the molar value.

Target: T1, MCH receptor (Homo sapiens, UniProt Q99705)
T1 construct: expressed in transfected cells; host or cells: CHO cells
Experiment: MCH Receptor Binding Assay
Settings: membranes from CHO cells expressing the MCH receptor, [125I]-MCH, SPA; read-out: Activity Class (Ki)
Method: MCH Receptor Binding Assay:
Membranes from CHO cells expressing the MCH receptor were prepared by lysing cells with 5 mM HEPES for 15 min at 4C. Cell lysates were centrifuged ([…], 15 min) and the pellet was resuspended in 5 mM HEPES. For each 96-well plate (Microlite, Dynex Technologies), 1 mg of cell membranes were incubated with 10 mg of wheat germ agglutinin SPA beads (Amersham) for 5 min at 4 C in a volume of 10 ml of binding buffer (25 mM HEPES, 10 mM MGCl2, 10 mM NaCl, 5 mM MnCl2, 0.1% BSA). The membrane/bead mixture was centrifuged (1500×g, 3.5 min), the supernatant was aspirated, and the pellet was resuspended in 10 ml binding buffer. The centrifugation, aspiration and resuspension were then repeated. The membrane/bead mixture (100 μl) was then added to 96-well plates containing 50 μl of 500 pM [^125I]-MCH (NEN) and […] of the appropriate concentration of compound (4× the desired final concentration). Nonspecific binding was determined by including 1 μM MCH in the binding reaction. The binding reaction was incubated at room temperature for 2 h. Plates were then analyzed in a TOPCOUNT microplate scintillation counter (Packard). Data was analyzed and Ki values were determined using GraphPad Prism.

T1 sequence (Q99705 whole entry): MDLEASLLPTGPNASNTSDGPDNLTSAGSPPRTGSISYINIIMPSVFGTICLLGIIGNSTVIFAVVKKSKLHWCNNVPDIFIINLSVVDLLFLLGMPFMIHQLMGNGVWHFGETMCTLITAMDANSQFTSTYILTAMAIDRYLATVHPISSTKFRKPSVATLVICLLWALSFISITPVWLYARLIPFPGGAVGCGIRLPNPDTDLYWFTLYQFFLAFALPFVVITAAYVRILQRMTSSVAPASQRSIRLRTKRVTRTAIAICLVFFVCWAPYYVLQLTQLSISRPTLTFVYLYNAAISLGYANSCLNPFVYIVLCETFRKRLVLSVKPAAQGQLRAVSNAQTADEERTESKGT

Row | Structure (SMILES) | pKi
1 | CN1CCN(CCCN(c2nc3cc(Cl)c(Cl)cc3[nH]2)[C@@H]2CC[C@]3(c4cccc(CN5CCOCC5)c4)C[C@@H]3C2)CC1 [Example 10b] | 7.52 to 8.00
2 | CN1CCN(CCCN(c2nc3cc(F)c(F)cc3[nH]2)[C@@H]2CC[C@]3(c4cccc(C=O)c4)C[C@@H]3C2)CC1 [Example 9b] | 7.52 to 8.00
3 | CN1CCN(CCCN(c2nc3cc(F)c(Cl)cc3n2C)[C@@H]2CC[C@]3(c4cccc(C#N)c4)CC23)CC1 (some centres unmarked) [Example 36] | < 7.00
4 | CN1CCN(CCCN(c2nc3cc(Cl)c(Cl)cc3[nH]2)[C@@H]2CC[C@]3(c4cccc(C=O)c4)C[C@@H]3C2)CC1 [Example 9a] | 7.52 to 8.00
5 | CN1CCN(CCCN(c2nc3cc(F)c(Cl)cc3[nH]2)[C@@H]2CC[C@]3(c4cccc(Br)c4)CC23)CC1 (some centres unmarked) [Example 30d] | 7.52 to 8.00
6 | CN1CCN(CCCN(c2nc3cc(F)c(F)cc3[nH]2)[C@@H]2CC[C@]3(c4cccc(CN5CCOCC5)c4)C[C@@H]3C2)CC1 [Example 10e] | 7.52 to 8.00
7 | CN(C)Cc1cccc([C@]23CC[C@@H](N(CCCN4CCN(C)CC4)c4nc5cc(F)c(F)cc5[nH]4)C[C@H]2C3)c1 [Example 10d] | < 7.00
8 | CN1CCN(CCCN(c2nc3cc(F)c(F)cc3[nH]2)[C@@H]2CC[C@]3(c4cccc(C#N)c4)C[C@H]23)CC1 [Example 30c] | 7.52 to 8.00
9 | CS(=O)(=O)N1CCC(CN(c2nc3cc(F)c(F)cc3[nH]2)[C@@H]2CC[C@]3(c4cccc(C#N)c4)C[C@@H]3C2)CC1 [Example 16b] | 7.52 to 8.00
10 | CC(C)(C)OC(=O)N1CCC(CN(c2nc3cc(Cl)c(Cl)cc3[nH]2)[C@@H]2CC[C@]3(c4cccc(C#N)c4)CC3C2)CC1 (some centres unmarked) [Example 21] | < 7.00
11 | CN1CCN(CCCN(c2nc3cc(Cl)c(Cl)cc3[nH]2)[C@@H]2CC[C@]3(c4ccc(C#N)cc4)C[C@H]23)CC1 [Example 35b] | 7.52 to 8.00
12 | CN1CCN(CCCN(c2nc3cc(F)c(F)cc3[nH]2)[C@@H]2CC[C@]3(c4cccc(CN5CC[C@@H](O)C5)c4)CC3C2)CC1 (some centres unmarked) [Example 10f] | < 7.00
13 | CN1CCN(CCCN(c2nc3cc(F)c(F)cc3[nH]2)[C@@H]2CC[C@]3(c4cccc(CN5CCCC5)c4)C[C@@H]3C2)CC1 [Example 10c] | 7.52 to 8.00
14 | CO/N=C/c1cccc([C@]23CC[C@@H](N(CCCN4CCN(C)CC4)c4nc5cc(F)c(F)cc5[nH]4)CC2C3)c1 (some centres unmarked) [Example 24] | 7.52 to 8.00

Results, then the compound that gave them:

Row | pKi | Structure (SMILES)
15 | > 8.00 | CN1CCN(CCCN(c2nc3cc(F)c(C(F)(F)F)cc3[nH]2)[C@@H]2CC[C@]3(c4ccc(C#N)cc4)CC23)CC1 (some centres unmarked) [Example 35a]
16 | > 8.00 | CS(=O)(=O)N1CCC(CN(c2nc3cc(Cl)c(Cl)cc3[nH]2)[C@@H]2CC[C@]3(c4cccc(C#N)c4)C[C@@H]3C2)CC1 [Example 16a]
17 | > 8.00 | CN1CCN(CCCN(c2nc3cc(Cl)c(F)cc3[nH]2)[C@@H]2CC[C@]3(c4cccc(C#N)c4)C[C@@H]3C2)CC1 [Example 8c]
18 | > 8.00 | CN1CCN(CCCN(c2nc3cc(Cl)c(F)cc3[nH]2)[C@@H]2CC[C@]3(c4cccc(C#N)c4)C[C@H]23)CC1 [Example 30b]
19 | > 8.00 | N#Cc1cccc([C@]23CC[C@@H](N(CC4CCNCC4)c4nc5cc(Cl)c(Cl)cc5[nH]4)CC2C3)c1 (some centres unmarked) [Example 22]
20 | > 8.00 | CN1CCN(CCCN(c2nc3cc(Cl)c(F)cc3[nH]2)[C@@H]2CC[C@]3(c4ccc(C#N)cc4)C[C@H]23)CC1 [Example 35c]
21 | > 8.00 | CN(C)Cc1cccc([C@]23CC[C@@H](N(CCCN4CCN(C)CC4)c4nc5cc(Cl)c(Cl)cc5[nH]4)C[C@H]2C3)c1 [Example 10a]
22 | > 8.00 | CN1CCN(CCCN(c2nc3cc(Cl)c(Cl)cc3[nH]2)[C@@H]2CC[C@]3(c4cccc(C#N)c4)C[C@H]23)CC1 [Example 30a]
23 | > 8.00 | CS(=O)(=O)N1CCC(CN(c2nc3cc(F)c(Cl)cc3[nH]2)[C@@H]2CC[C@]3(c4cccc(C#N)c4)C[C@@H]3C2)CC1 [Example 16c]
